Here are results for 6 compounds from ChEMBL document CHEMBL5724914, “Linking interpersonal differences in gut microbiota composition and drug biotransformation activity” (2024).

The conditions of series [1]: human gut metagenome, 24 h, 2 µM.
Series [2] can be described thus: The drug is tested on Z-009 corresponding to pig gut metagenome with ENA study accession number: PRJEB37062 and ENA sample accession number: ERS12561809 for biotransformation under anaerobic condition. The drug concentrations were measured over 9 timepoints collected between 0 and 24 hours of incubation by liquid-chromatography-coupled mass spectrometry (LC–MS). The conditions noted are these: 2 µM.

The conditions of series [3]: human gut metagenome, 24 h, 2 µM. This is another data set of the same source.
The conditions of series [4]: human gut metagenome, 24 h, 2 µM. This is another data set of the same source.
Series [5] is described as follows: The drug is tested on WLS-220 corresponding to human gut metagenome with ENA study accession number: PRJEB37062 and ENA sample accession number: ERS12561769 for biotransformation under anaerobic condition. The drug concentrations were measured over 9 timepoints collected between 0 and 24 hours of incubation by liquid-chromatography-coupled mass spectrometry (LC–MS). The settings on record: 2 µM.

Series [6] is described as follows: The drug is tested on Z-010 corresponding to metagenome with ENA study accession number: PRJEB37062 and ENA sample accession number: ERS12561810 for biotransformation under anaerobic condition. The drug concentrations were measured over 9 timepoints collected between 0 and 24 hours of incubation by liquid-chromatography-coupled mass spectrometry (LC–MS). The settings on record: 2 µM.

For series [7] the following is noted: human gut metagenome, 24 h, 2 µM. The source holds these as a separate data set.
For series [8] the following is noted: human gut metagenome, 24 h, 2 µM. The source holds these as a separate data set.
The nature of series [9]: The drug is tested on Z-005 corresponding to metagenome with ENA study accession number: PRJEB37062 and ENA sample accession number: ERS12561805 for biotransformation under anaerobic condition. The drug concentrations were measured over 9 timepoints collected between 0 and 24 hours of incubation by liquid-chromatography-coupled mass spectrometry (LC–MS). The conditions noted are these: 2 µM.

The conditions of series [10]: human gut metagenome, 24 h, 2 µM. This is another data set of the same source.
The conditions of series [11]: human gut metagenome, 24 h, 2 µM. This is another data set of the same source.
The conditions of series [12]: human gut metagenome, 24 h, 2 µM. The source holds these as a separate data set.
Series [13] is described as follows: The drug is tested on Z-006 corresponding to mouse gut metagenome with ENA study accession number: PRJEB37062 and ENA sample accession number: ERS12561806 for biotransformation under anaerobic condition. The drug concentrations were measured over 9 timepoints collected between 0 and 24 hours of incubation by liquid-chromatography-coupled mass spectrometry (LC–MS). The conditions noted are these: 2 µM.

Series [14] can be described thus: The drug is tested on Z-011 corresponding to mouse gut metagenome with ENA study accession number: PRJEB37062 and ENA sample accession number: ERS12561811 for biotransformation under anaerobic condition. The drug concentrations were measured over 9 timepoints collected between 0 and 24 hours of incubation by liquid-chromatography-coupled mass spectrometry (LC–MS). The conditions noted are these: 2 µM.

The conditions of series [15]: human gut metagenome, 24 h, 2 µM. The source holds these as a separate data set.
The nature of series [16]: The drug is tested on Z-013 corresponding to rabbit gut metagenome with ENA study accession number: PRJEB37062 and ENA sample accession number: ERS12561813 for biotransformation under anaerobic condition. The drug concentrations were measured over 9 timepoints collected between 0 and 24 hours of incubation by liquid-chromatography-coupled mass spectrometry (LC–MS). The conditions noted are these: 2 µM.

Series [17] is described as follows: The drug is tested on WLS-370 corresponding to human gut metagenome with ENA study accession number: PRJEB37062 and ENA sample accession number: ERS12561793 for biotransformation under anaerobic condition. The drug concentrations were measured over 9 timepoints collected between 0 and 24 hours of incubation by liquid-chromatography-coupled mass spectrometry (LC–MS). The conditions noted are these: 2 µM.

The conditions of series [18]: human gut metagenome, 24 h, 2 µM. This is another data set of the same source.
A short description of series [19]: The drug is tested on Z-027 corresponding to metagenome with ENA study accession number: PRJEB37062 and ENA sample accession number: ERS12561826 for biotransformation under anaerobic condition. The drug concentrations were measured over 9 timepoints collected between 0 and 24 hours of incubation by liquid-chromatography-coupled mass spectrometry (LC–MS). The conditions noted are these: 2 µM.

Series [20] can be described thus: The drug is tested on WLS-073 corresponding to human gut metagenome with ENA study accession number: PRJEB37062 and ENA sample accession number: ERS12561749 for biotransformation under anaerobic condition. The drug concentrations were measured over 9 timepoints collected between 0 and 24 hours of incubation by liquid-chromatography-coupled mass spectrometry (LC–MS). The conditions noted are these: 2 µM.
Note: call rule not given here.

On to `CCOC(=O)[C@H](CCc1ccccc1)N[C@@H](C)C(=O)N1[C@H](C(=O)O)C[C@@H]2CCC[C@@H]21`, for which the “Bacterial Biotransformation” value in series [1], in series [2], in [3], in series [4], in [5] and in series [6] was “Compound metabolized” each time. The “Bacterial Biotransformation” value in series [7] is on record as “Compound NOT metabolized”; in [8], “Compound metabolized”; in series [9], “Compound metabolized”; in series [10] it was “Compound metabolized”; in series [11] it was “Compound NOT metabolized”; in series [12], “Compound metabolized”. Further, the “Bacterial Biotransformation” value is “Compound NOT metabolized” in series [13]; “Compound NOT metabolized” in series [14]; “Compound metabolized” in [15]; “Compound NOT metabolized” in series [16]; “Compound metabolized” in series [17]; “Compound metabolized” in series [18]. The “Bacterial Biotransformation” value was “Compound NOT metabolized” in series [19] and “Compound metabolized” in series [20].
Consider `CCN(CC)CCNC(C(=O)OCCC(C)C)c1ccccc1.Cl.Cl` (centres undefined), for which the “Bacterial Biotransformation” value in series [1] is “Compound metabolized”; in [2], “Compound metabolized”; in series [3] it was “Compound metabolized”; in series [4], “Compound metabolized”; in series [5], “Compound NOT metabolized”; in [6] it was “Compound metabolized”. Moreover, the “Bacterial Biotransformation” value is reported as “Compound NOT metabolized” in [7]; “Compound metabolized” in series [8]; “Compound metabolized” in [9]; “Compound metabolized” in [10]; “Compound NOT metabolized” in [11]; “Compound metabolized” in series [12]. Also, the “Bacterial Biotransformation” value in series [13] is “Compound NOT metabolized”; in [14], “Compound NOT metabolized”; in series [15] it was “Compound metabolized”; in series [16], “Compound NOT metabolized”; in [17], “Compound metabolized”; in series [18], “Compound metabolized”. The “Bacterial Biotransformation” value in series [19] is on record as “Compound NOT metabolized”; in [20], “Compound metabolized”.
On to `CCCC(=O)Nc1ccc(OCC(O)CNC(C)C)c(C(C)=O)c1` (centres undefined) [ACEBUTOLOL], for which the “Bacterial Biotransformation” value in [1] is listed as “Compound metabolized”; in series [2], “Compound NOT metabolized”; in series [3], “Compound NOT metabolized”; in series [4] it was “Compound NOT metabolized”; in series [5], “Compound NOT metabolized”; in [6], “Compound NOT metabolized”. Moreover, the “Bacterial Biotransformation” value is “Compound metabolized” in series [7]; “Compound metabolized” in [8]; “Compound NOT metabolized” in series [9]; “Compound metabolized” in series [10]; “Compound metabolized” in [11]; “Compound metabolized” in series [12]. The “Bacterial Biotransformation” value in [13] is “Compound NOT metabolized”; in series [14], “Compound NOT metabolized”; in series [15], “Compound NOT metabolized”; in series [16] it was “Compound NOT metabolized”; in series [17], “Compound NOT metabolized”; in [18], “Compound metabolized”. Further, the “Bacterial Biotransformation” value in series [19] and in [20] was “Compound NOT metabolized” in each case.
For `C=CCc1ccccc1OCC(O)CNC(C)C` (centres undefined) [ALPRENOLOL], the “Bacterial Biotransformation” value in series [1] was “Compound metabolized”; in series [2] it was “Compound NOT metabolized”; in [3] it was “Compound NOT metabolized”; in [4], “Compound NOT metabolized”; in [5], “Compound metabolized”; in series [6], “Compound NOT metabolized”. Also, the “Bacterial Biotransformation” value in series [7] is “Compound NOT metabolized”; in series [8], “Compound metabolized”; in series [9] it was “Compound NOT metabolized”; in series [10], “Compound NOT metabolized”; in series [11], “Compound NOT metabolized”; in series [12] it was “Compound metabolized”. Also, the “Bacterial Biotransformation” value in series [13], in series [14], in series [15], in series [16], in series [17] and in [18] was “Compound NOT metabolized” throughout. Further, the “Bacterial Biotransformation” value is given as “Compound metabolized” in series [19] and “Compound NOT metabolized” in series [20].
For the compound `CC(C)c1c(C(=O)Nc2ccccc2)c(-c2ccccc2)c(-c2ccc(F)cc2)n1CC[C@@H](O)C[C@@H](O)CC(=O)O` [ATORVASTATIN], the “Bacterial Biotransformation” value in [1] is recorded as “Compound metabolized”; in [2], “Compound NOT metabolized”; in series [3], “Compound NOT metabolized”; in series [4], “Compound metabolized”; in series [5], “Compound NOT metabolized”; in series [6], “Compound metabolized”. Also, the “Bacterial Biotransformation” value is listed as “Compound metabolized” in series [7]; “Compound metabolized” in series [8]; “Compound metabolized” in [9]; “Compound metabolized” in series [10]; “Compound NOT metabolized” in series [11]; “Compound NOT metabolized” in series [12]. Besides, the “Bacterial Biotransformation” value in series [13] is “Compound NOT metabolized”; in series [14], “Compound NOT metabolized”; in series [15], “Compound metabolized”; in series [16], “Compound NOT metabolized”; in [17], “Compound metabolized”; in series [18], “Compound metabolized”. In addition, the “Bacterial Biotransformation” value in series [19] and in [20] was “Compound NOT metabolized” each time.
In the case of `COc1ccc2[nH]c([S+]([O-])Cc3ncc(C)c(OC)c3C)nc2n1` (centres undefined) [TENATOPRAZOLE], the “Bacterial Biotransformation” value in series [1] is given as “Compound NOT metabolized”; in series [2] it was “Compound metabolized”; in series [3], “Compound NOT metabolized”; in series [5], “Compound metabolized”; in series [6], “Compound metabolized”; in series [7] it was “Compound metabolized”. Moreover, the “Bacterial Biotransformation” value in [8], in [9], in series [10], in series [11], in [12] and in [13] was “Compound metabolized” each time. Besides, the “Bacterial Biotransformation” value in series [14] is “Compound metabolized”; in series [15], “Compound NOT metabolized”; in series [16], “Compound metabolized”; in series [17] it was “Compound metabolized”; in series [18], “Compound metabolized”; in series [19], “Compound metabolized”. Also, the “Bacterial Biotransformation” value in series [20] is “Compound metabolized”.
